Data from patent publication US9125862B2, “Methods for the treatment of Prader-Willi-like syndrome or non-organic failure to thrive (NOFITT) feeding disorder using an agonist of the oxytocin receptor” (Institut National de la Sante et de la Rechereche Medicale …, priority 2010, dated 2015).

Columns and labels:
Magel2 KO neonates = assay: Injection of oxytocin or vasopressin in Magel2 KO neonates: rescue of feeding and survival; assay type: in vivo, mouse
Method: Three to 5 hours after delivery, wild type pups or pups issued from a cross between an heterozygote (+/−) male with wild type females were temporally removed (10 min) from their mother, weighted and given a single s.c. (in the ventral region at the level of floating ribs) injection (20 μl) of isotonic saline or 2 μg oxytocin (Phoenix Pharmaceuticals. Inc., Catalog No. 051-01) dissolved in isotonic saline (20 μl). […] Following the same protocol, we injected vasopressin (Phoenix Pharmaceuticals. Inc., Catalog No. 065-07) at different doses. At P2, pups were scarified to be genotyped.
The results obtained with the injection of SSR 126768A OTA let us think that we might restore a normal feeding behaviour in Magel2 KO newborns with an OT injection just after birth. Early neonatal manipulation of OT was reported in the literature without alterations of the postnatal development (Cushing, B. S., et Al., 2003; Yamamoto, Y., et al., 2004; Saito, O., et Al., 2007). Initially, 28 wild type newborns were injected with an isotonic saline (20 μl) and 4 of them died at P1. Another cohort of 28 wild type newborns, […] on hypothalamic nuclei one hour after the injection (Cushing, B. S., et Al., 2003; Yamamoto, Y., et al., 2004). We then decided to inject 2 μg of OT in Magel2 KO and wild type newborns, 3 to 5 hours after birth, the time when wild type newborns started to suckle but not the mutant neonates. […] The level of lethality is similar after an injection of saline solution (4/28 dead pups) or oxytocin (3/28 dead pups) and is in the range of lethality normally observed in wild type cohorts. In a second step, ten litters including a total of 37 wild type and 40 Magel2 KO neonates, were injected with an oxytocin solution. At P2, we observed that 95% (35/37) of wild type and 93% (37/40) of Magel2 mutant newborns survived with milk previously detected in their stomach at P1. In parallel, we controlled that the rescue of Magel2 KO neonates was specifically due to the oxytocin injection and not to the injection stress and/or handling of neonates. […]

adult patients with PWS [1] = assay: Tests evaluating the understanding of social codes (Sally and Ann, Cartoons, RMET); assay type: in vivo, human; settings: 45 minutes after intranasal 24 UI
Method: Forty-five minutes after the intranasal administration, three tests evaluating the understanding of social codes were administered, which lasted one hour. Conversely to the behavioural grid, there was no pre-administration evaluation. The Sally and Ann test assesses one's ability to understand simple situations by story-telling and pictures. Cartoons depicting more complex social situations designed for the evaluation of autistic children were also used (“Cartoons”, unpublished test). The “Reading the Mind in the Eyes” test (RMET) assesses the ability to read emotions from subtle affective facial expressions, especially in the eyes. A shortened test with 19 images from the 36-item revised version was chosen by the team psychologist. In these three tests, TOM is necessary to understand and analyse the social situations that are presented. Statistical analysis was performed using the Mann-Whiney test, the Wilcoxon test or the chi2 test.

adult patients with PWS [2] = assay: Tolerance in the clinical pilot study; assay type: in vivo, human; settings: single intranasal 24 UI
Excerpt: The inventors designed a double-blind randomised, placebo-controlled pilot study (ClinicalTrials.gov Identifier: NCT01038570) to be conducted in a dedicated PWS centre, where patients are regularly admitted for one month and live in a controlled environment. Patients know they have no free access to food but no doubt about the time and the content of meals. For each stay, 16 patients with PWS are admitted and take part in daily planned occupational and physical group activities. They also receive medical care as needed and psychological support. The 24 patients included in this study (16 females, 8 males, median age 28.5 years [18.7 to 43.6], median BMI 43 kg/m2 [19.4 to 67.4]) were stratified on gender and IQ (median IQ=51 [45 to 75]). […] Patients as well as parents or caregivers gave their written consent prior to entering the study. Exclusion criteria were an abnormal ECG and other severe cardiovascular problems. Patients were well known to the team. Each pair of patients of the same gender and same IQ range was evaluated the same day. The two patients of the pair received either OT or placebo in a double-blind randomisation. Patients were included in the study over the course of three series of stays.
Each patient received a single intranasal administration of either placebo (saline solution) or OT (Syntocinon®/-Spray, Novartis, Basel, Switzerland) with three puffs per nostril (24 UI). The dose of 24 UI is the most frequently reported in the literature. […] This nurse knew neither the patients nor the study.

SMILES: CC[C@H](C)[C@@H]1NC(=O)[C@H](Cc2ccc(O)cc2)NC(=O)[C@@H](N)CSSC[C@@H](C(=O)N2CCC[C@H]2C(=O)N[C@@H](CC(C)C)C(=O)NCC(N)=O)NC(=O)[C@H](CC(N)=O)NC(=O)[C@H](CCC(N)=O)NC1=O [oxytocin]
- newborns survived at P2 with milk in stomach at P1 (Magel2 KO neonates; Magel2 mutant, 2 μg oxytocin s.c. 3 to 5 hours after birth, vehicle lethality 48.5% at P1): 93%
- rescue of the death rate due to the feeding deficit (Magel2 KO neonates; one single injection, 3-5 hours after birth): efficiently rescue the death rate
- patients who successfully completed the Sally and Ann test (adult patients with PWS [1]; OT group n=12, placebo 50%, P=0.19): Eighty-three
- Cartoons score (adult patients with PWS [1]; OT vs placebo, P=0.56): 3.75 (1-18)
- total RMET score (adult patients with PWS [1]; placebo 5.5 (1-11), P=0.18): 7 (4-9)
- Tolerance (adult patients with PWS [2]): excellent
- adverse event during the study (adult patients with PWS [2]): No adverse event
- effect on electrocardiogram and PSA (adult patients with PWS [2]): no effect
